Reference: ChEMBL document CHEMBL1759936, “Oxindole derivatives as inhibitors of TAK1 kinase” (Bioorg Med Chem Lett, 2011)
pIC50: −log10 of the molar value. Values after ≈ are worked out from the molar mass of the structure shown.

Test system: HeLa
Assay: Cytotoxicity against human HeLa cells
Assay type: cell-based

Structure (SMILES)	pIC50
O=C1Nc2ccccc2/C1=N/N=C1\SCC(=O)N1c1ccc(O)cc1	< 4.00

Target: T1, Mitogen-activated protein kinase kinase kinase 7 (Homo sapiens) (UniProt O43318)
T1 sequence (whole entry): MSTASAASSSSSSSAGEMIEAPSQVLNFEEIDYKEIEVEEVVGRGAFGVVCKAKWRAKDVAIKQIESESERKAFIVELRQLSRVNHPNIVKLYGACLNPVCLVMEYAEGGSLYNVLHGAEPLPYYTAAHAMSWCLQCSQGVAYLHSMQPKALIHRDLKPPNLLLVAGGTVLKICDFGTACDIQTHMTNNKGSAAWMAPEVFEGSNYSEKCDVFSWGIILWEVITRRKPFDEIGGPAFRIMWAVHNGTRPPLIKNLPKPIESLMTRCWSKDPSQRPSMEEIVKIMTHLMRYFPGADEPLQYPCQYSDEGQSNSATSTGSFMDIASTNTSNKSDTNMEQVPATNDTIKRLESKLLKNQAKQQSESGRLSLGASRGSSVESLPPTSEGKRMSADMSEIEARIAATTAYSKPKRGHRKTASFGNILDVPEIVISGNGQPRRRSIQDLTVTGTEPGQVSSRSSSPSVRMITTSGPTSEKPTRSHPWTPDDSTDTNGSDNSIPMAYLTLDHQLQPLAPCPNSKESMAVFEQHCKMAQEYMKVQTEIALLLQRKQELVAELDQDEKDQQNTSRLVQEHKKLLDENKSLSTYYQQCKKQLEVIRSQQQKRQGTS
Assay: Competitive inhibition of TAK1 overexpressed in Hela cells assessed as TAK1 autophosphorylation on Thr187 by ELISA

IC50	Structure (SMILES)
11 µM	O=C1Nc2ccccc2/C1=N/N=C1\SCC(=O)N1c1ccc(O)cc1

Test system: not listed separately
Assay: Solubility in phosphate buffer at pH 7.4
Assay type: physicochemical

solubility	Structure (SMILES)
65 µM (≈ 22.9 µg/mL)	O=C1Nc2ccccc2/C1=N/N=C1\SCC(=O)N1c1ccc(O)cc1
3.1 µM (≈ 1.34 µg/mL)	O=C1Nc2ccc(Br)cc2/C1=N/N=C1\SCC(=O)N1c1ccc(O)cc1

Target: TAK1/TAB1 (Homo sapiens, UniProt O43318)
Assay: Competitive inhibition of recombinant TAK1-TAB1 assessed as [33P]gamma-ATP incorporation into substrate histone H1 peptide by filter plate assay
Assay type: protein-complex assay

TAK1/TAB1, sequence (Q15750 whole entry, one chain of several): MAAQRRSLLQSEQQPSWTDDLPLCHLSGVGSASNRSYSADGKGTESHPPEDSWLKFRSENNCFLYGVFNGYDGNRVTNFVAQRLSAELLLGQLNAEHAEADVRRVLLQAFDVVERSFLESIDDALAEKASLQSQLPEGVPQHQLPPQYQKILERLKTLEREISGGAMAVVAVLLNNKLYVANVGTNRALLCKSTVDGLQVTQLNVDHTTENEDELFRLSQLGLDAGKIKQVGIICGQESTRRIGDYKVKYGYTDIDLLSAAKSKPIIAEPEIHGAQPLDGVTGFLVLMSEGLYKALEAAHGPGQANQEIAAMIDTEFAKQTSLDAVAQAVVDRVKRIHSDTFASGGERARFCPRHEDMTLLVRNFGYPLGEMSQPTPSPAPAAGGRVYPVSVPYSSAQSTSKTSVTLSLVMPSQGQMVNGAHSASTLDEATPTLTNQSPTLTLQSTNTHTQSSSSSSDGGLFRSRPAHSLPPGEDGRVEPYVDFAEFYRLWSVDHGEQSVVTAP

Structure (SMILES)	pIC50
Cc1ccc2c(c1)/C(=N/N=C1\SCC(=O)N1c1ccc(O)cc1)C(=O)N2	7.01
COc1ccc(N2C(=O)CS/C2=N\N=C2/C(=O)Nc3ccccc32)cc1	< 5.30
O=C1Nc2ccccc2/C1=N/N=C1\SCC(=O)N1c1ccccc1O	5.24
O=C1Nc2ccccc2/C1=N/N=C1\SCC(=O)N1CC1CCCN1 (configuration not stated)	4.52
O=C1Nc2ccccc2/C1=N/N=C1\SCC(=O)N1c1cccc(O)c1	4.54
O=C1Nc2ccc(OC(F)(F)F)cc2/C1=N/N=C1\SCC(=O)N1c1ccc(O)cc1	5.52
CC(C)C1S/C(=N\N=C2/C(=O)Nc3ccc(Cl)cc32)N(c2ccc(O)cc2)C1=O (configuration not stated)	< 5.30
O=C1CS/C(=N\N=C2/C(=O)Nc3ccccc32)N1	< 5.30
O=C1Nc2ccc(Cl)cc2/C1=N/N=C1\SCC(=O)N1c1ccc(O)cc1	7.68
CN(C)c1ccc(N2C(=O)CS/C2=N\N=C2/C(=O)Nc3ccccc32)cc1	< 4.30
O=C1Nc2ccc(F)cc2/C1=N/N=C1\SCC(=O)N1c1ccc(O)cc1	7.00
O=C1Nc2ccccc2/C1=N/N=C1\SCC(=O)N1Cc1ccncc1	5.09
O=C1Nc2ccccc2/C1=N/N=C1\SCC(=O)N1c1cnccc1O	4.60
O=C1Nc2ccccc2/C1=C\c1ccc(O)c(O)c1O	5.77
O=C1Nc2ccc(Br)cc2/C1=N/N=C1\SCC(=O)N1c1ccc(O)cc1	8.05

More lines, now with the values ahead:

pIC50	Structure (SMILES)
< 5.30	O=C1Nc2ccccc2/C1=C\c1ccc(O)c(O)c1
< 5.30	O=C1Nc2ccccc2/C1=C/C(=O)c1ccccc1
5.39	O=C1Nc2ccccc2/C1=C/C(=O)c1cccc(O)c1
7.34	O=C1Nc2ccccc2/C1=N/N=C1\SCC(=O)N1c1ccc(O)cc1
< 5.30	CCC1S/C(=N\N=C2/C(=O)Nc3ccc(Cl)cc32)N(c2ccc(O)cc2)C1=O (configuration not stated)
6.20	CC1S/C(=N\N=C2/C(=O)Nc3ccc(Cl)cc32)N(c2ccc(O)cc2)C1=O (configuration not stated)
6.25	O=C1Nc2ccccc2/C1=C/C(=O)c1ccc(O)c(O)c1

Target: TAK1/TAB1 (Homo sapiens) (UniProt Q15750+O43318)
Assay: Competitive inhibition of recombinant TAK1-TAB1 assessed as [33P]gamma-ATP incorporation into substrate histone H1 peptide at 10 uM by filter plate assay
Assay type: protein-complex assay

Structure (SMILES)	inhibition
O=C1Nc2ccccc2/C1=C\c1c[nH]cn1	32%
C/C(C(=O)c1ccccc1)=C1/C(=O)Nc2ccccc21	39%
Cc1ccc(N2C(=O)CS/C2=N\N=C2/C(=O)Nc3ccccc32)cc1	0%
O=C1Nc2ccccc2/C1=N/N=C1\SCC(=O)N1c1cccc(Oc2ccccc2)c1	0%
O=C1Nc2ccccc2/C1=N/N=C1\SCC(=O)N1c1ccc(OCc2ccccc2)cc1	6%
Cc1c(Cl)ccc2c1NC(=O)/C2=N\N=C1/SCC(=O)N1c1ccc(O)cc1	0%

Results, then the compound that gave them:

inhibition	Structure (SMILES)
4%	O=C1Nc2cccc(Cl)c2/C1=N/N=C1\SCC(=O)N1c1ccc(O)cc1
52%	O=C1Nc2ccccc2C1c1ccnc(Nc2ccccc2O)n1 (configuration not stated)
39%	O=C1Nc2ccccc2C1c1ccnc(Nc2ccc(O)cc2)n1 (configuration not stated)
0%	O=C1Nc2ccccc2/C1=N/N=C1\N=NCN1c1ccc(O)cc1
21%	O=C1Nc2ccccc2/C1=C/C(=O)c1ccc(O)cc1O
